Assay results as given in patent US5124351A, “Pharmaceutical compositions for the treatment of cancers susceptible to treatment with the copper complex of S-(methylthio)-DL-homocysteine or the L-enantimorph thereof” (The United States of America as represented by the …, priority 1989, dated 1992).
Where two headings read alike, the source gives them in different places.

Tests used:
L1210 cells [1] = experiment: Cell volume of L1210 cells (Channelyzer); format: cell-based, murine; conditions: growth inhibition
Experimental: (§1) Cells were grown at 37° C. for designated times in tightly stoppered flasks and cell density was determined as indicated above. Cell volume distribution was monitored with a C1000 Channelyzer with standard size latex particles (Coulter) as reference. The results are expressed as growth fraction (N--No/No) or as percent growth fraction compared to appropriate controls.
(To obtain the data in FIG. 5, the cells were incubated with S-(methylthio)-L-homocysteine 15 μM, (curve .smallcircle.--.smallcircle.) and 30 μM (curve -- )together with their corresponding concentrations of copper sulfate). […] To obtain the data in FIG. 6, the cells were incubated for 14 hours in the medium described in the above section entitled Growth And Its Inhibition In Cell Culture, but containing only 1 mM glutamine, 1/2 the normal concentration. […] At the end of the incubation, the cell density in the inhibited culture was determined, and &he entire population centrifuged for analysis. An aliquot containing an equal number of cells from the control culture was removed for comparison, and both samples processed and analyzed as described in the above section entitled Analysis of Nucleoside Triphosphate Pools. […]
To obtain the data in FIG. 7, cells were incubated under standard conditions with S-(methylthio)-L -homocysteine and copper sulfate, each 15 μM, and cell volume monitored during the course of the incubation. […]

L1210 cells [2] = experiment: Inhibition of growth of L1210 cells in culture (growth fraction); format: cell-based, murine; conditions: for stereospecificity result with 10 μM copper sulfate: 10 μM instead of 50 μM copper; for potentiation of SMETH by other metal ions: 10 μM; for protection from growth inhibition by copper-SMETH: copper-SMETH 15 and 30 μM; for IC50: potentiation of growth inhibition by DL-SMETH 75 or 100 μM, estimated by interpolation, read-out: Conc. for 50% further inhibition; for activity at 50 µM: L1210, L-SMETH 50 μM, read-out: growth (percent of control)
Experimental: Cytotoxicity of SMETH was assessed as follows. Cells were harvested at mid-log phase (8-10×10^5 cells/ml) washed with fresh growth medium and resuspended at 1×10^5 cells per ml as determined by a model ZBI Coulter Counter (Coulter Electronics, Hialeah, Fla.). Suspensions (7 ml) were added to 25 cm^2 Corning flasks, and SMETH, 20 mM in water, with or without copper sulfate, 2 mM in water were added as dilutions in water at no greater than 10 μl/ml of the cell suspension.
as §1
(The cells also were incubated for 40 hours).
1 with S-(methylthio)-DL-homocysteine DL-SMETH, (See curve .smallcircle.--.smallcircle. in FIG. 4) and with the pure L-enantiomorph, L-SMETH, (See curve -- in FIG. 4).

[3] = test system: L1210 cells in primary culture; experiment: Growth of L1210 cells in primary culture (obtained directly from the mouse) with copper; format: cell-based
Experimental: (The cells also were incubated for 40 hours). (See FIG. 3 of Mohindru, A., Fisher, J. M., and Rabinovitz, M. "2,9-Dimethyl-1,10-phenanthroline (neocuproine): A Potent, Copper-dependent Cytotoxin With Anti-tumor Activity.)" A concentration of 10 μM was more than adequate as a potentiating dose, but at this concentration other metal ions (Zn^++, Mn^++, CO^++, Ni^++, Cr^+++) were ineffective. […] Such cells fail to grow unless supplemented with an appropriate mercaptan or disulfide (See curve .smallcircle.--.smallcircle. in FIG. 3). […] Thus, both the organic and inorganic moieties of this invention show high specificity in this inhibition.

methionine metabolism = conditions: via its adenosyl derivative; cited from earlier work
endothelial cell = conditions: via copper catalyzed hydrogen peroxide generation; cited from earlier work
lymphoblasts = conditions: with added adenosine and deoxycoformycin; cited from earlier work
cellular methylations = conditions: cited from earlier work
purine biosynthesis = conditions: literature; cited from earlier work
[4] = Cecil and McPhee; cited from earlier work

CSSCCC(N)C(=O)O (racemic) [DL-SMETH, S-(methylthio)-DL-homocysteine]
cell volume change over a two day period (L1210 cells [1]): progressive increase in cell volume
inhibition of cellular proliferation (L1210 cells [2]): potent inhibitor of cellular proliferation
stereospecificity result with 10 μM copper sulfate (L1210 cells [2]): nearly identical results
range of inhibitory concentration of SMETH with copper ion (L1210 cells [2]; 40 hours, copper ion present): both reduced and narrowed in the presence of copper ion
percent inhibition (L1210 cells [2]; DL-SMETH 75 μm alone): 46%
percent inhibition (L1210 cells [2]; DL-SMETH 75 μm plus adenosine 10 μm, deoxycoformycin 20 μm): 46%
minimal effective concentration (L1210 cells [2]; Mus musculus, L1210, 40 hours, without copper, read-out: threshold level): 25 µM
cytotoxicity to L1210 cells (L1210 cells [2]; alone, 40 hours): cytotoxic to L1210 cells in culture when present at a broad range of micromolar concentrations
relative activity of racemic form (vs D-SMETH as printed) (L1210 cells [2]; copper ion 50 μM): half as active as D-SMETH
effect of copper ion on inhibition by SMETH (L1210 cells [2]; threshold SMETH 25 μM with micromolar copper ion, 40 hours): completely inhibitory concentration

CSSC[C@H](N)C(=O)O [4-thiamethionine, S-(methylthio)-L-cysteine]
growth support with copper ion ([3]; 4TM 50 μM): supported growth which was independent of copper ion concentration
cytotoxicity in the presence of copper ([3]; L1210 primary culture): not cytotoxic in the presence of copper
protection from growth inhibition by copper ([3]; L1210 primary culture): protected L1210 cells in primary culture from growth inhibition by copper

Nc1ncnc2c1ncn2[C@@H]1O[C@H](CO)[C@@H](O)[C@H]1O [Adenosine]
toxicity of adenosine (L1210 cells [2]; 10 μM alone): not toxic to L1210 cells
toxicity of adenosine with L-homocysteinethiolactone (L1210 cells [2]; 10 μM with non-toxic concentration of L-homocysteinethiolactone): toxic when added together with a non-toxic concentration of L-homocysteinethiolactone
effect of adenosine on SMETH potency (L1210 cells [2]; toxic dose of SMETH): did not increase the potency of a toxic dose of SMETH

[Co+2] [CO^++]
potentiation of SMETH by other metal ions (L1210 cells [2]): ineffective

[Cr+3] [Cr^+++]
potentiation of SMETH by other metal ions (L1210 cells [2]): ineffective

Nc1ccn([C@@H]2O[C@H](CO)[C@@H](O)[C@H]2O)c(=O)n1 [Cytidine]
protection from growth inhibition by copper-SMETH (L1210 cells [2]): protected the cells from growth inhibition, and this protection was non-competitive

CSSCC[C@@H](N)C(=O)O [D-SMETH]
activity of D-SMETH (L1210 cells [2]; 50 μM with 50 μM copper ion): completely inactive

NC(=O)CC[C@H](N)C(=O)O [Glutamine]
protection against SMETH and SMETH plus Cu++ (L1210 cells [2]; glutamine, millimolar concentrations): protected cells against SMETH and SMETH plug Cu^++

N[C@@H](CCS)C(=O)O [Homocysteine]
toxicity by blocking methionine metabolism (methionine metabolism): toxic by blocking methionine metabolism
endothelial cell damage (endothelial cell): promote endothelial cell damage

OCCSSCCO [Hydroxyethyl Disulfide (HEDS), Hydroxyethyl Disulfide]
growth promotion and its inhibition by copper ([3]; high copper concentrations): promoted growth, but this was inhibited by high copper concentrations

N[C@H]1CCSC1=O [L-Homocysteine Thiolactone]
growth block (lymphoblasts): can block growth
percent inhibition (L1210 cells [2]; L-homocysteine thiolactone 200 μM plus adenosine 10 μM, deoxycoformycin 20 μM): 39%
inhibition at 200 µM (L1210 cells [2]; Mus musculus, L1210, L-homocysteine thiolactone 200 μM alone, read-out: percent inhibition): 5%

CC(C)C[C@H](N)C(=O)O [L-Leucine]
IC50 (L1210 cells [2]): 1000 µM

CSCC[C@H](N)C(=O)O [L-Methionine]
IC50 (L1210 cells [2]): 2000 µM

CCCC[C@H](N)C(=O)O [L-Norleucine]
IC50 (L1210 cells [2]): 2500 µM

CSSCC[C@H](N)C(=O)O [L-SMETH, S-(methylthio)-L-homocysteine]
stereospecificity result with 10 μM copper sulfate (L1210 cells [2]): nearly identical results
activity at 50 µM (L1210 cells [2]; Mus musculus, glutamine 0.5 mM): 15%
activity at 50 µM (L1210 cells [2]; Mus musculus, glutamine 1.0 mM): 31%
activity at 50 µM (L1210 cells [2]; Mus musculus, glutamine 2.0 mM): 58%
activity at 50 µM (L1210 cells [2]; Mus musculus, glutamine 4.0 mM): 98%

[Mn+2] [Mn^++]
potentiation of SMETH by other metal ions (L1210 cells [2]): ineffective

[Ni+2] [Ni^++]
potentiation of SMETH by other metal ions (L1210 cells [2]): ineffective

CCSC[C@H](N)C(=O)O [S-Ethyl-L-cysteine]
IC50 (L1210 cells [2]): 1000 µM

Nc1ncnc2c1ncn2[C@@H]1O[C@H](CSCC[C@H](N)C(=O)O)[C@@H](O)[C@H]1O [S-adenosylhomocysteine]
inhibition of cellular methylations (cellular methylations): potent inhibitor of cellular methylations
inhibition of cellular methylations (cellular methylations; listed as Adenosylhomocysteine): potent inhibitor of cellular methylation processes

O=c1ccn([C@@H]2O[C@H](CO)[C@@H](O)[C@H]2O)c(=O)[nH]1 [Uridine]
protection from growth inhibition by copper-SMETH (L1210 cells [2]): ineffective in such protection

[Zn+2] [Zn^++]
potentiation of SMETH by other metal ions (L1210 cells [2]): ineffective

N[C@H](C(=O)O)[C@@H]1CC(Cl)=NO1 [acivicin, (alphaS,5S)-alpha-amino-3-chloro-4,5-dihydro-5-isoxazoleacetizacid]
sites blocked in purine biosynthesis (purine biosynthesis): also block some sites in purine biosynthesis

[N-]=[N+]=CC(=O)OC[C@H](N)C(=O)O [azaserine]
sites blocked in purine biosynthesis (purine biosynthesis): also block some sites in purine biosynthesis

O=S(=O)([O-])[O-].[Cu+2] [copper ion, copper sulfate]
toxicity of the ion itself (L1210 cells [2]; copper ion alone, at much higher levels than micromolar potentiating levels): non -toxic itself at much higher levels
potentiating dose of copper ion (L1210 cells [2]; with SMETH, 40 hours, "more than adequate"): ≤ 10 µM

[N-]=[N+]=CC(=O)CC[C@H](N)C(=O)O [diazo-oxo-norleucine, 6-diazo-5-oxo-norleucine]
sites blocked in purine biosynthesis (purine biosynthesis): also block some sites in purine biosynthesis

Nc1nc2c(ncn2[C@@H]2O[C@H](CO)[C@@H](O)[C@H]2O)c(=O)[nH]1 [guanosine]
protection from growth inhibition by copper-SMETH (L1210 cells [2]): ineffective in such protection

N[C@@H](CCSSCC[C@H](N)C(=O)O)C(=O)O [homocystine]
rate of reaction with silver ion relative to cystine [4]: 267 times

DL-Isopropionine
IC50 (L1210 cells [2]): 2000 µM
